What was measured:
[1] = Preliminary pharmacokinetics of compound of formula (I) in dog; conditions: serum, 12.5 mg
Experimental: (§2) Preliminary Pharmacokinetics studies of the compound of formula (I) was performed in mice and dog to determine bioavailibility and serum levels achieved and maintained by the compounds.

[2] = Pharmacokinetics of the combination with rifampicin and pyrazinamide in mice; conditions: mouse, in vivo, po; for half-life: T½
[3] = Preliminary pharmacokinetics of compound of formula (I) in mice; conditions: mouse, in vivo
Experimental: as §2

[4] = Acute toxicity by oral route in rats; conditions: rat, in vivo
Experimental: (§1) Acute toxicity of the compound of formula (I) was determined in rodents by oral route.

[5] = system: bacterial strains used in the Ames Mutagenicity test; assay: Ames Mutagenicity test; assay type: cell-based; conditions: all the bacterial strains used
[6] = Acute toxicity by oral route in mice; conditions: mouse, in vivo
Experimental: as §1

sensitive strain of MTB = assay: Murine model of pulmonary tuberculosis, mice infected with sensitive strain; assay type: in vivo, Mycobacterium tuberculosis; conditions: for dose giving 2 log reduction in the organs: animals infected with sensitive strain
in vivo [7] = conditions: mouse, po, 25 mg/kg
in vivo [8] = conditions: dog, po, 12.5 mg
Experimental: as §2

[9] = 12.5 mg/kg, (I) alone 12.5 mg/kg
[10] = given together: (I) 12.5 + RIF 20.0 + PYR 150.0 mg/kg
[11] = combination study, one month, doses mg/kg: (I) 25.0 where present, INH 25.0, RIF 20.0, PYR 150.0, ETH 100.0
[12] = combination study, three months, doses mg/kg: (I) 25.0 where present, INH 25.0, RIF 20.0, PYR 150.0, ETH 100.0
[13] = combination study, two months, doses mg/kg: (I) 25.0 where present, INH 25.0, RIF 20.0, PYR 150.0, ETH 100.0
[14] = monotherapy 12.5 mg/kg, 8 Weeks Treatment (two months)
[15] = monotherapy 12.5 mg/kg, 12 Weeks Treatment (three months)
[16] = monotherapy 12.5 mg/kg, one month of treatment
[17] = monotherapy 25 mg/kg, 8 Weeks Treatment (two months)
[18] = monotherapy 25 mg/kg, 12 Weeks Treatment (three months)
[19] = monotherapy 25 mg/kg, one month of treatment
[20] = monotherapy 50 mg/kg, 8 Weeks Treatment (two months)
[21] = monotherapy 50 mg/kg, 12 Weeks Treatment (three months)
[22] = monotherapy 50 mg/kg, one month of treatment
[23] = given together without (I): RIF 20.0 + PYR 150.0 mg/kg

Cc1c(CN2CCN(c3cccc(C(F)(F)F)c3)CC2)cc(-c2ccccc2)n1NC(=O)c1ccncc1 [Compound of formula (I)]
AUC(0-t) ([1]; iv): 20 µg·h/mL
Cmax ([1]; iv): 8.65 µg/mL
Tmax ([1]; iv): 3.48 h
AUC(0-t) ([1]; po): 10.6 µg·h/mL
Cmax ([1]; po): 3.38 µg/mL
Tmax ([1]; po): 0.75 h
bioavailability ([1]; po): 56.4%
AUC [2, 9]: 2.21 µg·h/mL
Cmax [2, 9]: 0.66 µg/mL
Tmax [2, 9]: 1.5 h
half-life [2, 9]: 5.34 h
AUC [2, 10]: 36.5 µg·h/mL
Cmax [2, 10]: 7.58 µg/mL
Tmax [2, 10]: 2.12 h
half-life [2, 10]: 6.73 h
AUC(0-t) ([3]; po, 25 mg): 6.88 µg·h/mL
Cmax ([3]; po, 25 mg): 2.68 µg/mL
Tmax ([3]; po, 25 mg): 2 h
half-life ([3]; po, 25 mg): 3.41 h
AUC(0-t) ([3]; Mice, 12.5 mg (Oral), read-out: AUClast): 2.21 µg·h/mL
Cmax ([3]; Mice, 12.5 mg (Oral), read-out: Cmax): 0.66 µg/mL
half-life ([3]; Mice, 12.5 mg (Oral), read-out: T1/2 (converted)): 5.34 h
Tmax ([3]; Mice, 12.5 mg (Oral), read-out: Tmax): 1.5 h
LD50 [4]: 793 mg/kg
mutagenicity in the Ames Mutagenicity test [5]: non mutagenic
LD50 [6]: 700 mg/kg
dose giving 2 log reduction in the organs (sensitive strain of MTB): 12.5 mg/kg
Mean Log10CFU in organs of mice infected with sensitive strain of MTB, Lung (sensitive strain of MTB; [11]): 3.11 ± 0.38 Log10CFU
Mean Log10CFU in organs of mice infected with sensitive strain of MTB, Spleen (sensitive strain of MTB; [11]): 2.42 ± 0.4 Log10CFU
Mean Log10CFU in organs of mice infected with sensitive strain of MTB, Lung (sensitive strain of MTB; [12]): 0.82 ± 0.91 Log10CFU
Mean Log10CFU in organs of mice infected with sensitive strain of MTB, Spleen (sensitive strain of MTB; [12]): 1.09 ± 0.83 Log10CFU
Mean Log10CFU in organs of mice infected with sensitive strain of MTB, Lung (sensitive strain of MTB; [13]): 1.86 ± 0.94 Log10CFU
Mean Log10CFU in organs of mice infected with sensitive strain of MTB, Spleen (sensitive strain of MTB; [13]): 2.60 ± 0.45 Log10CFU
Mean Log10CFU in organs of mice infected with sensitive strain of MTB, Lung (sensitive strain of MTB; [14]): 3.44 ± 0.69 Log10CFU
Mean Log10CFU in organs of mice infected with sensitive strain of MTB, Spleen (sensitive strain of MTB; [14]): 2.75 ± 0.63 Log10CFU
Mean Log10CFU in organs of mice infected with sensitive strain of MTB, Lung (sensitive strain of MTB; [15]): 2.76 ± 0.53 Log10CFU
Mean Log10CFU in organs of mice infected with sensitive strain of MTB, Spleen (sensitive strain of MTB; [15]): 2.68 ± 0.27 Log10CFU
Mean Log10CFU in organs of mice infected with sensitive strain of MTB, Lung (sensitive strain of MTB; [16]): 2.5 ± 0.35 Log10CFU
Mean Log10CFU in organs of mice infected with sensitive strain of MTB, Spleen (sensitive strain of MTB; [16]): 2.89 ± 0.32 Log10CFU
Mean Log10CFU in organs of mice infected with sensitive strain of MTB, Lung (sensitive strain of MTB; [17]): 2.89 ± 0.73 Log10CFU
Mean Log10CFU in organs of mice infected with sensitive strain of MTB, Spleen (sensitive strain of MTB; [17]): 2.37 ± 0.68 Log10CFU
Mean Log10CFU in organs of mice infected with sensitive strain of MTB, Lung (sensitive strain of MTB; [18]): 1.71 ± 1.24 Log10CFU
Mean Log10CFU in organs of mice infected with sensitive strain of MTB, Spleen (sensitive strain of MTB; [18]): 1.63 ± 0.98 Log10CFU
Mean Log10CFU in organs of mice infected with sensitive strain of MTB, Lung (sensitive strain of MTB; [19]): 2.3 ± 0.63 Log10CFU
Mean Log10CFU in organs of mice infected with sensitive strain of MTB, Spleen (sensitive strain of MTB; [19]): 2.42 ± 0.15 Log10CFU
Mean Log10CFU in organs of mice infected with sensitive strain of MTB, Lung (sensitive strain of MTB; [20]): 2.20 ± 0.56 Log10CFU
Mean Log10CFU in organs of mice infected with sensitive strain of MTB, Spleen (sensitive strain of MTB; [20]): 2.17 ± 0.46 Log10CFU
Mean Log10CFU in organs of mice infected with sensitive strain of MTB, Lung (sensitive strain of MTB; [21]): 1.46 ± 1.06 Log10CFU
Mean Log10CFU in organs of mice infected with sensitive strain of MTB, Spleen (sensitive strain of MTB; [21]): 1.56 ± 1.12 Log10CFU
Mean Log10CFU in organs of mice infected with sensitive strain of MTB, Lung (sensitive strain of MTB; [22]): 2.1 ± 0.36 Log10CFU
Mean Log10CFU in organs of mice infected with sensitive strain of MTB, Spleen (sensitive strain of MTB; [22]): 2.28 ± 0.38 Log10CFU
AUC (in vivo [7]): 6.88 µg·h/mL
Cmax (in vivo [7]): 2.68 µg/mL
Tmax (in vivo [7]): 2 h
half-life (in vivo [7]): 3.41 h
half-life (in vivo [8]): 5.07 h

NNC(=O)c1ccncc1 [Isoniazid]
dose giving 2 log reduction in the organs (sensitive strain of MTB): ≥ 25 mg/kg
Mean Log10CFU in organs of mice infected with sensitive strain of MTB, Lung (sensitive strain of MTB; [11]): 3.20 ± 0.45 Log10CFU
Mean Log10CFU in organs of mice infected with sensitive strain of MTB, Spleen (sensitive strain of MTB; [11]): 2.78 ± 0.30 Log10CFU
Mean Log10CFU in organs of mice infected with sensitive strain of MTB, Lung (sensitive strain of MTB; [12]): 1.20 ± 0.98 Log10CFU
Mean Log10CFU in organs of mice infected with sensitive strain of MTB, Spleen (sensitive strain of MTB; [12]): 1.35 ± 1.09 Log10CFU
Mean Log10CFU in organs of mice infected with sensitive strain of MTB, Lung (sensitive strain of MTB; [13]): 1.91 ± 0.9 Log10CFU
Mean Log10CFU in organs of mice infected with sensitive strain of MTB, Spleen (sensitive strain of MTB; [13]): 2.43 ± 0.39 Log10CFU
Mean Log10CFU in organs of mice infected with sensitive strain of MTB, Lung (sensitive strain of MTB; [14]): 3.9 ± 0.45 Log10CFU
Mean Log10CFU in organs of mice infected with sensitive strain of MTB, Spleen (sensitive strain of MTB; [14]): 3.73 ± 0.52 Log10CFU
Mean Log10CFU in organs of mice infected with sensitive strain of MTB, Lung (sensitive strain of MTB; [15]): 3.94 ± 0.28 Log10CFU
Mean Log10CFU in organs of mice infected with sensitive strain of MTB, Spleen (sensitive strain of MTB; [15]): 3.9 ± 0.37 Log10CFU
Mean Log10CFU in organs of mice infected with sensitive strain of MTB, Lung (sensitive strain of MTB; [16]): 4.56 ± 0.24 Log10CFU
Mean Log10CFU in organs of mice infected with sensitive strain of MTB, Spleen (sensitive strain of MTB; [16]): 4.93 ± 0.42 Log10CFU
Mean Log10CFU in organs of mice infected with sensitive strain of MTB, Lung (sensitive strain of MTB; [17]): 3.01 ± 0.68 Log10CFU
Mean Log10CFU in organs of mice infected with sensitive strain of MTB, Spleen (sensitive strain of MTB; [17]): 2.68 ± 0.89 Log10CFU
Mean Log10CFU in organs of mice infected with sensitive strain of MTB, Lung (sensitive strain of MTB; [18]): 3.06 ± 0.83 Log10CFU
Mean Log10CFU in organs of mice infected with sensitive strain of MTB, Spleen (sensitive strain of MTB; [18]): 2.41 ± 0.69 Log10CFU
Mean Log10CFU in organs of mice infected with sensitive strain of MTB, Lung (sensitive strain of MTB; [19]): 3.19 ± 0.6 Log10CFU
Mean Log10CFU in organs of mice infected with sensitive strain of MTB, Spleen (sensitive strain of MTB; [19]): 3.08 ± 0.44 Log10CFU
Mean Log10CFU in organs of mice infected with sensitive strain of MTB, Lung (sensitive strain of MTB; [20]): 2.45 ± 0.60 Log10CFU
Mean Log10CFU in organs of mice infected with sensitive strain of MTB, Spleen (sensitive strain of MTB; [20]): 2.30 ± 0.38 Log10CFU
Mean Log10CFU in organs of mice infected with sensitive strain of MTB, Lung (sensitive strain of MTB; [21]): 2.07 ± 0.33 Log10CFU
Mean Log10CFU in organs of mice infected with sensitive strain of MTB, Spleen (sensitive strain of MTB; [21]): 2.68 ± 0.36 Log10CFU
Mean Log10CFU in organs of mice infected with sensitive strain of MTB, Lung (sensitive strain of MTB; [22]): 2.97 ± 0.46 Log10CFU
Mean Log10CFU in organs of mice infected with sensitive strain of MTB, Spleen (sensitive strain of MTB; [22]): 2.89 ± 0.27 Log10CFU

NC(=O)c1cnccn1 [PYR, Pyrazinamide]
AUC [2, 23]: 649 µg·h/mL
AUC [2, 10]: 477 µg·h/mL
Cmax [2, 23]: 138 µg/mL
Cmax [2, 10]: 146 µg/mL
Tmax [2, 23]: 1.5 h
Tmax [2, 10]: 1 h
half-life [2, 23]: 2.09 h
half-life [2, 10]: 2.05 h

CO[C@H]1/C=C/O[C@@]2(C)Oc3c(C)c(O)c4c(O)c(c(/C=N/N5CCN(C)CC5)c(O)c4c3C2=O)NC(=O)/C(C)=C\C=C\[C@H](C)[C@H](O)[C@@H](C)[C@@H](O)[C@@H](C)[C@H](OC(C)=O)[C@@H]1C [Rifampicin]
AUC [2, 23]: 148 µg·h/mL
AUC [2, 10]: 195 µg·h/mL
Cmax [2, 23]: 15.2 µg/mL
Cmax [2, 10]: 19.3 µg/mL
Tmax [2, 23]: 2.3 h
Tmax [2, 10]: 3.25 h
Mean Log10CFU in organs of mice infected with sensitive strain of MTB, Lung (sensitive strain of MTB; [11]): 2.75 ± 0.36 Log10CFU
Mean Log10CFU in organs of mice infected with sensitive strain of MTB, Spleen (sensitive strain of MTB; [11]): 2.78 ± 0.42 Log10CFU
Mean Log10CFU in organs of mice infected with sensitive strain of MTB, Lung (sensitive strain of MTB; [12]): 0.84 ± 1.10 Log10CFU
Mean Log10CFU in organs of mice infected with sensitive strain of MTB, Spleen (sensitive strain of MTB; [12]): 1.21 ± 0.83 Log10CFU
Mean Log10CFU in organs of mice infected with sensitive strain of MTB, Lung (sensitive strain of MTB; [13]): 1.84 ± 0.95 Log10CFU
Mean Log10CFU in organs of mice infected with sensitive strain of MTB, Spleen (sensitive strain of MTB; [13]): 2.40 ± 0.7 Log10CFU

— US7491721B2, “Antimycobacterial pharmaceutical composition” (priority 2004, dated 2009)
